This is an account of results in US20240254119A1 (THIRD HARMONIC BIO, INC., priority 2022, published 2024).

One series is described as follows: Kinetic solubility assay. It is filed as physicochemical. Particulars: kinetic solubility, 50 mM PB (pH 7.4), shaken 24 hours at RT. As to the method:
10 μL of 10 mM in DMSO of test article and control compounds was added into lower chambers of whatman miniuniprep vials, respectively. 490 μL of 50 mM PB (pH 7.4) was then added into lower chambers of the whatman miniuniprep vials, respectively. […] Miniuniprep vials were shaken for 24 hours at RT at the speed of 800 rpm, centrifuged 20 minutes (eg. 4000 rpm) and the filtrates were analyzed by UPLC-UV/HPLC-UV system to calculate the concentration with standard curve.
Filter Membrane: Miniuniprep (PTFE Filter Media with Polypropylene Housing) Cat. No. UN203NPUORG, GE Halthcare Whatman.

Series [1] concerns the target T1, wtKIT (Homo sapiens, UniProt P10721).
T1 construct: 1888289AM in the reaction mixtures
Kind of series: HTRF biochemical assay, wtKIT (phosphorylation of a peptide substrate). Particulars: Table 4. In outline: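 wtKIT (5.0 nM) phosphorylating 1 µM FAM-labelled peptide with 400 µM ATP and 10 mM MnCl2 in 100 mM HEPES pH 7.5, 1% DMSO, 3 h at 25 °C. EDTA quench; phosphopeptide detected with anti-phosphotyrosine antibody by HTRF. Enzyme titrated for 10-20% substrate conversion.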

Series [2] addresses T1, wtKIT. Kind of series: Caliper biochemical assay, wtKIT. Particulars: Table 6, read-out: KIT Biochemical IC50 avg. How it is done:
Enzyme, substrate, and cofactors (ATP and Mn^2+) are combined in a well of a microtiter plate and incubated for 3 hours at 25° C. At the end of the incubation, the reaction is quenched by the addition of an EDTA-containing buffer. Substrate and product are separated electrophoretically using the microfluidic-based LabChip 3000 Drug Discovery System from Caliper Life Sciences* and quantitated by fluorescence intensity.
The substrate used in the CSF-1R and PDGFRα assay is FAM-[…]-CONH2 (FAM is carboxyfluorescein). Peptide should be >95% purity. The substrate for the KIT assay is FAM-[…]-NH2.
• 1. To a well of a 384-well plate add 5 μL of 2× enzyme buffer (or control) • 2. Add 100 nL of 100× compound. • 3. Add 5 μL of 2× substrate buffer. • 4. Incubate plate at 25° C. for 3 hours. • 5. Add 10 uL of […]. • 6. Read plate LabChip 3000 Drug Discovery System
• 3 hours at 25° C. where 100% Inhibitor: No enzyme.
• 100 mM HEPES, pH 7.5 0.1% BSA • 0.01% Triton X-100 • 1 mM DTT • 10 mM MnCl2 • 10 μM Sodium Orthovanadate • 10 μM Beta-Glycerophosphate • 400 μM ATP • 1% DMSO (from compound) • 1 μM FAM-[…]-CONH2 5.0 nM wtKIT Enzyme (1888289AM)* • *Specific activity may vary from lot to lot. Enzyme concentration may need to be adjusted to yield 10-20% conversion of substrate to product.

The target of series [3] is T2, BCRP (BCRP-MDCKII monolayer) (Homo sapiens, UniProt Q9UNQ0).
T2 construct: host or cells: MDCKII (canine kidney) cells
T2 sequence (Q9UNQ0 1-655): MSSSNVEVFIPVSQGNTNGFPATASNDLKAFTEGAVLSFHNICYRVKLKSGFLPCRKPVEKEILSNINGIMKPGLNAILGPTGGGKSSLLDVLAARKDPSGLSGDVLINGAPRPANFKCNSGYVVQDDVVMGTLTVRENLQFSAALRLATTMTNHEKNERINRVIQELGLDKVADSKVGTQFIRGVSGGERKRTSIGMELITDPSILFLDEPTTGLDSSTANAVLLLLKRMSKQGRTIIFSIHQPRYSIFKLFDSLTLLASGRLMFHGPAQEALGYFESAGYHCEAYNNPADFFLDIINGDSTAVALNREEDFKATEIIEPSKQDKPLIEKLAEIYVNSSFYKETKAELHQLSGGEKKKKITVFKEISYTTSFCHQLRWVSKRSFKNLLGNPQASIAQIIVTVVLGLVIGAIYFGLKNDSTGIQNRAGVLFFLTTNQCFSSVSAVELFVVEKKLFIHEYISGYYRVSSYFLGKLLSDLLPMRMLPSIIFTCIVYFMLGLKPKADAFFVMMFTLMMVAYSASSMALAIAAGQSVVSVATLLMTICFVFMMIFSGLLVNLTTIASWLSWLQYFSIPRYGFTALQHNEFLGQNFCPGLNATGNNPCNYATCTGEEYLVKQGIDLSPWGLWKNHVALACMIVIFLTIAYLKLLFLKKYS
Briefly: MDCKII-BCRP bidirectional transport assay. In kind it is in vitro ADME. Particulars: for MDCK-BCRP: Papp A-B: apical to basolateral. How it is done:
Exemplary compounds were tested for cell permeability in Caco-2, MDCKII-MDR1 and MDCKII-BCRP cell lines with efflux transporter engagement inferred from the efflux ratios determined. Procedures and results are described below. […] This feature of certain compounds is in part due to efflux transporter engagement. See, for instance, exemplary such compounds included in data tables below.
The reference compound Teriflunomide and test compounds are tested in the bidirectional assay. Test compound and reference compounds incubations were tested in duplicates.
The transport assay can be performed between days 12 to day 15 using ready to use PreadyPort™ BCRP-MDCKII monolayer in 96 well plate.
The medium was aspirated from the apical and basal compartments and 75 and 235 μL assay buffer was added to each of the 96 wells of apical and basal compartments of the PreadyPort™ plate.
The plates were pre-incubated for 15 min at 37° C. with 5% CO2 in humidified atmosphere. After preincubation the assay buffer was removed from the apical and basal inserts of the plate.
In apical to basolateral (A→B) transport, 75 μL of test or reference compound working solution to apical inserts and 235 μL of blank assay buffer were added to the corresponding basal compartments.
In basolateral to apical transport, 235 μL of test or reference compound working solution to the basal compartments and 75 μL of blank assay buffer solution were added to corresponding apical inserts.
The sandwich plate was incubated for 120 min in incubator at 5% CO2 and 37° C.
After incubation, 60 μL was transferred from receiver and donor compartments to collection plate.
For donor and C0 samples 20-fold dilution was accomplished by mixing 60 μL of collected sample with 1140 μL of transport buffer and from that solution aliquot 60 μL transfer Both receiver and donor samples were processed by adding […] of acetonitrile containing internal standard (60 μL of sample+240 μL of acetonitrile containing glyburide as internal standard, 125 ng/mL) and vortexing the samples. The compound concentration was measured in all samples using respective calibration standards by LC-MS/MS.
Calculate the Papp and recovery using the given formula:
[formula] [formula] • Where: dQ/dt=Permeability rate in μM/see • C0=Initial concentration in μM • A=Membrane surface area (0.33 cm^2) • V=Volume of receiver chamber • Cend, a=concentration in acceptor well at end of incubation • Cend, d=concentration in donor well at end of incubation • CHBSS=loading concentration measured in HBSS

T1 sequence (P10721 26-976): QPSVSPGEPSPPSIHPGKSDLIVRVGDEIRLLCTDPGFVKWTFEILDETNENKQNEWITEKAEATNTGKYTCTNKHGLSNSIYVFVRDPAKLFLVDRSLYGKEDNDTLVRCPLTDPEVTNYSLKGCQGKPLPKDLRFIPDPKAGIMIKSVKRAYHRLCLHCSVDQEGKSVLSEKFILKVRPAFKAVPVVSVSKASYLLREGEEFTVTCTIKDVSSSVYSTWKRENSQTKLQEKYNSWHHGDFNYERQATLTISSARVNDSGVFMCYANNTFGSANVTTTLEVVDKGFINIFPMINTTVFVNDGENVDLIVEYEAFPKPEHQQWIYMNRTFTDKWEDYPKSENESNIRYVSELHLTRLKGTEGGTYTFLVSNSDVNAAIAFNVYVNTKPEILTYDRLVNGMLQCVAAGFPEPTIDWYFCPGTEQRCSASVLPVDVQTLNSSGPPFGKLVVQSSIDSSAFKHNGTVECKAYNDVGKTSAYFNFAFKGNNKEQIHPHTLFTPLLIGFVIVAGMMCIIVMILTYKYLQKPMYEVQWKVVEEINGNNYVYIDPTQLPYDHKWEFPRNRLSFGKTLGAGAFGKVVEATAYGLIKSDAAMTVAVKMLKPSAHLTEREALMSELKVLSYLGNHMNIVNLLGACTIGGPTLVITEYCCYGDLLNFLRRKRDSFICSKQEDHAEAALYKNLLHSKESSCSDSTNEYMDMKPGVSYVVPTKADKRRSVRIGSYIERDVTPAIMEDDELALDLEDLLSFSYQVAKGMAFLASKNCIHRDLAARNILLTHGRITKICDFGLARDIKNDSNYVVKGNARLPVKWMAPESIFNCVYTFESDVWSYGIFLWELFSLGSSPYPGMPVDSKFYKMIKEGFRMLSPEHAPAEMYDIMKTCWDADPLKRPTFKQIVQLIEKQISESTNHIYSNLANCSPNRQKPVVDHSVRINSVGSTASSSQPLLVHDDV

For `COC(=O)N1CC(c2nc(-c3ccc(C)c(NC(=O)c4cnc5ccc(OCCO)cn45)c3)no2)C1` [Compound I-247], the “Solubility (μM)” value in the series “Kinetic solubility assay” was “*** (a solubility greater than 2 μM and less than or equal to 10 μM)”. Further, the values for the 50% inhibitory concentration (IC50) at wtKIT [1] and at wtKIT [2] were 50 to 500 nM and no more than 50 nM, respectively.

On to `COC1(OC)CCC1c1nc(-c2ccc(C)c(NC(=O)c3cnc4ccccn34)c2)no1` (racemic) [Compound I-308], for which the “Solubility (μM)” value in “Kinetic solubility assay” is “*** (a solubility greater than 2 μM and less than or equal to 10 μM)”. Besides, at wtKIT [2], the IC50 was no more than 50 nM. In series [3], the “MDCK-BCRP: Efflux Ratio” value was found to be 1.13 and the “MDCK-BCRP: Papp A-B” value was 16.3 10^−6 cm/s.

For the compound `Cc1ccc(-c2noc(C3CCCCO3)n2)cc1NC(=O)c1cnc2ccccn12` (racemic) [Compound I-397], in “Kinetic solubility assay”, the “Solubility (μM)” value was “*** (a solubility greater than 2 μM and less than or equal to 10 μM)”. Besides, on wtKIT [2], the IC50 is no more than 50 nM. Besides, in series [3], the “MDCK-BCRP: Efflux Ratio” value is given as 2.83 and the “MDCK-BCRP: Papp A-B” value is on record as 8.04 10^−6 cm/s.

For `CCOC1CC(c2nc(-c3ccc(C)c(NC(=O)c4cnc5ccccn45)c3)no2)C1` (stereo not drawn) [Compound I-310], in the series “Kinetic solubility assay”, the “Solubility (μM)” value is on record as “**** (a solubility less than or equal to 2 μM)”. Moreover, the half-maximal inhibitory concentration (IC50) on wtKIT [2] is 50 to 500 nM. In addition, in series [3], the “MDCK-BCRP: Efflux Ratio” value was determined as 0.81 and the “MDCK-BCRP: Papp A-B” value is listed as 12 10^−6 cm/s.

For `COC1CC(c2nc(-c3ccc(C)c(NC(=O)c4cnc5ccccn45)c3)no2)C1` (stereo not drawn) [Compound I-350], in the series “Kinetic solubility assay”, the “Solubility (μM)” value was “** (a solubility greater than 10 μM and less than or equal to 50 μM)”. Moreover, the IC50 on wtKIT [2] was no more than 50 nM. In addition, in series [3], the “MDCK-BCRP: Efflux Ratio” value came out at 1.52 and the “MDCK-BCRP: Papp A-B” value is listed as 8.86 10^−6 cm/s.

For the compound `CSCC1(c2nc(-c3ccc(C)c(NC(=O)c4cnc5ccccn45)c3)no2)CC(F)(F)C1` [Compound I-354], the “Solubility (μM)” value in “Kinetic solubility assay” is recorded as “**** (a solubility less than or equal to 2 μM)”. The IC50 at wtKIT [2] was no more than 50 nM. Moreover, in series [3], the “MDCK-BCRP: Efflux Ratio” value is on record as 1.03 and the “MDCK-BCRP: Papp A-B” value is listed as 7.97 10^−6 cm/s.

In the case of `Cc1nc(-c2ccc(C)c(NC(=O)c3cnc4ccc(N5CCOCC5)cn34)c2)no1` [Compound I-218], in the series “Kinetic solubility assay”, the “Solubility (μM)” value was “**** (a solubility less than or equal to 2 μM)”. Moreover, the half-maximal inhibitory concentration (IC50) on wtKIT [1] and at wtKIT [2] was no more than 50 nM each time.

Consider `COC(=O)N1CC(c2nc(-c3ccc(C)c(NC(=O)c4cnc5ccc(OC[C@@H](C)O)cn45)c3)no2)C1` [Compound I-227], for which, in “Kinetic solubility assay”, the “Solubility (μM)” value was “** (a solubility greater than 10 μM and less than or equal to 50 μM)”. In addition, the IC50 on wtKIT [1] was 50 to 500 nM; at wtKIT [2] it was no more than 50 nM.

Turning to `COC(=O)N1CC(c2nc(-c3ccc(C)c(NC(=O)c4cnc5ccc(OCC(C)(C)O)cn45)c3)no2)C1` [Compound I-239], in “Kinetic solubility assay”, the “Solubility (μM)” value was “** (a solubility greater than 10 μM and less than or equal to 50 μM)”. Also, the half-maximal inhibitory concentration (IC50) on wtKIT [1] and on wtKIT [2] was 50 to 500 nM in each case.

As to `Cc1ccc(-c2noc([C@H]3C[C@@H]3F)n2)cc1NC(=O)c1cnc2cc(NS(=O)(=O)c3c(C)noc3C)ccn12` [Compound I-226], in the series “Kinetic solubility assay”, the “Solubility (μM)” value is recorded as “* (a solubility greater than 50 μM)”. Further, the half-maximal inhibitory concentration (IC50) on wtKIT [1] and at wtKIT [2] was 50 to 500 nM each time.

For the compound `Cc1ccc(-c2noc([C@H]3CCN3)n2)cc1NC(=O)c1cnc2cc(C#N)ccn12` [Compound I-244], the “Solubility (μM)” value in the series “Kinetic solubility assay” is “* (a solubility greater than 50 μM)”. Also, the IC50 on wtKIT [1] and on wtKIT [2] was 50 to 500 nM each time.

For `Cc1ccc(-c2noc([C@H]3CCN3S(=O)(=O)c3cccnc3)n2)cc1NC(=O)c1cnc2ccccn12` [Compound I-233], in “Kinetic solubility assay”, the “Solubility (μM)” value was “** (a solubility greater than 10 μM and less than or equal to 50 μM)”. The half-inhibitory concentration (IC50) at wtKIT [1] and at wtKIT [2] was 50 to 500 nM each time.

As for `Cc1ccc(-c2noc(C3CC3F)n2)cc1NC(=O)c1cnc2ccc(Nc3ccc(OC(F)F)cc3)cn12` (stereo not drawn) [Compound I-284], in “Kinetic solubility assay”, the “Solubility (μM)” value is “*** (a solubility greater than 2 μM and less than or equal to 10 μM)”. For the same compound, at wtKIT [2], the IC50 was no more than 50 nM.

As for `Cc1ccc(-c2noc([C@H]3C[C@@H]3F)n2)cc1NC(=O)c1cnc2cc(C(N)=O)ccn12` [Compound I-207], in the series “Kinetic solubility assay”, the “Solubility (μM)” value was “**** (a solubility less than or equal to 2 μM)”. For the same compound, the half-maximal inhibitory concentration (IC50) at wtKIT [1] and on wtKIT [2] was no more than 50 nM each time.

For `Cc1cc(C)cc(Nc2ccn3c(C(=O)Nc4cc(-c5noc([C@H]6C[C@@H]6F)n5)ccc4C)cnc3c2)c1` [Compound I-292], the “Solubility (μM)” value in the series “Kinetic solubility assay” is “*** (a solubility greater than 2 μM and less than or equal to 10 μM)”. Moreover, the IC50 at wtKIT [2] was no more than 50 nM.

Turning to `Cc1nc(-c2ccc(C)c(NC(=O)c3cnc4ccc(N5CCCCC5)cn34)c2)no1` [Compound I-206], in the series “Kinetic solubility assay”, the “Solubility (μM)” value was “**** (a solubility less than or equal to 2 μM)”. The IC50 at wtKIT [1] and at wtKIT [2] was no more than 50 nM throughout.

Turning to `CCNc1ccn2c(C(=O)Nc3cc(-c4noc(C)n4)ccc3C)cnc2c1` [Compound I-229], the “Solubility (μM)” value in “Kinetic solubility assay” is reported as “**** (a solubility less than or equal to 2 μM)”. Further, the 50% inhibitory concentration (IC50) on wtKIT [1] and at wtKIT [2] was no more than 50 nM each time.

For `Cc1ccc(-c2noc([C@@H]3CC(=O)N3)n2)cc1NC(=O)c1cnc2ccccn12` (racemic) [Compound I-224], in the series “Kinetic solubility assay”, the “Solubility (μM)” value was “* (a solubility greater than 50 μM)”. Further, the IC50 at wtKIT [1] was 50 to 500 nM; on wtKIT [2], no more than 50 nM.
